{
  "source": "patent US8815840B2",
  "about": "“Carbazole and carboline kinase inhibitors” (Bristol-Myers Squibb Company, priority 2008, dated 2014)",
  "note": "Where a name gives a salt, the structure may show the parent alone.",
  "data": [
    {"biological_target": "JAK2 (Homo sapiens (Human), UniProt O60674)", "sequence (O60674 whole entry)": "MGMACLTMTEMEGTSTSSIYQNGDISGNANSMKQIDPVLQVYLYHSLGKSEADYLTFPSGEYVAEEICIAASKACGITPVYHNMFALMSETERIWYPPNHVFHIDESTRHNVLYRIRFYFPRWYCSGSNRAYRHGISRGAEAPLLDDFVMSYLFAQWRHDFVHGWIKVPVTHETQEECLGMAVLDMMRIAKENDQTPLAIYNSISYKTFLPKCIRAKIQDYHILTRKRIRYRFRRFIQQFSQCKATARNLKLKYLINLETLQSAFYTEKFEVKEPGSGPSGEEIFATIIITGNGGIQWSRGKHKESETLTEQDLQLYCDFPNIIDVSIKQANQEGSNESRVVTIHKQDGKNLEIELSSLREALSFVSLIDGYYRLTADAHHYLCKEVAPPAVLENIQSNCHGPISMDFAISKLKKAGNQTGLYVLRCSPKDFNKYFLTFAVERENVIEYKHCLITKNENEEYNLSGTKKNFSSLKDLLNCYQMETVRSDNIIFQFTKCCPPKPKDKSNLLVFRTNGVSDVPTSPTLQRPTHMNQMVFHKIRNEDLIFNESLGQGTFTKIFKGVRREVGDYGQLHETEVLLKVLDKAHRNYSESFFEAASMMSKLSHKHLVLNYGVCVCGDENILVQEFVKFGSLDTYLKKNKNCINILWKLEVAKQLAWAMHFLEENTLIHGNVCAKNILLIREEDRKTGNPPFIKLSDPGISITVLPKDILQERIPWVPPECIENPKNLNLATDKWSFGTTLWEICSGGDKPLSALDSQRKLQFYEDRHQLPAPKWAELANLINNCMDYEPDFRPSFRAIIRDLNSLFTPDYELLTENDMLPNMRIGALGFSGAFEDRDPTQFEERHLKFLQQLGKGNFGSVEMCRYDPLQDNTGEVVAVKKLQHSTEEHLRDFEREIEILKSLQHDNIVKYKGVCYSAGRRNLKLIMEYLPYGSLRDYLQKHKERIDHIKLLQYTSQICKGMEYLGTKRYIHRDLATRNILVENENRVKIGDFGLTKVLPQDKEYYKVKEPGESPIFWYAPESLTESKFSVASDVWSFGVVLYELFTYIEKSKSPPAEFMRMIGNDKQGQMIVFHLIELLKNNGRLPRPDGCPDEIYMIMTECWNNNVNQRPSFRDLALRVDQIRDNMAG", "test": "JAK2 Tyrosine Kinase Assay", "assay_type": "biochemical", "conditions": "ATP 30 μM; JAK2 1 nM; 60 min at room temperature", "procedure": "JAK2 Tyrosine Kinase Assay\nThe assays were performed in V-bottom 384-well plates. […] The reaction was initiated by the combination of JAK2 with substrates and test compounds. The reaction was incubated at room temperature for 60 min. and terminated by adding 45 μl of 35 mM EDTA to each sample. The reaction mixture was analyzed on the Caliper LABCHIP® 3000 by electrophoretic separation of the fluorescent substrate and phosphorylated product. […] Compounds were dissolved at 10 mM in dimethylsulfoxide (DMSO) and evaluated at eleven concentrations, each in duplicate. IC50 values were derived by non-linear regression analysis", "units": {"IC50": "nM"}, "values": [
      {"smiles": "COc1ccc(-c2cc(C(N)=O)c3[nH]c4ccc(C(=O)N5C[C@@H]6C[C@H]5CO6)cc4c3c2)cc1F", "note": "[Example 196, 6-((1S,4S)-2-oxa-5-azabicyclo[2.2.1]heptane-5-carbonyl)-3-(3-fluoro-4-methoxyphenyl)-9H-carbazole-1-carboxamide]", "IC50": 1},
      {"smiles": "NC(=O)c1cc(-c2ccc(OCCN3CCOCC3)c(Cl)c2)nc2c1[nH]c1cc(N3CCOCC3)ccc12", "note": "[Example 353, 2-(3-Chloro-4-(2-morpholinoethoxy)phenyl)-7-morpholino-5H-pyrido[3 ,2-b]indole-4-carboxamide]", "IC50": 1},
      {"smiles": "NC(=O)c1cc(-c2cnoc2)nc2c1[nH]c1cc(C(=O)N3CCOCC3)ccc12", "note": "[Example 462, 2-(isoxazol-4-yl)-7-(morpholine-4-carbonyl)-5H-pyrido[3,2-b]indole-4-carboxamide]", "IC50": 112},
      {"smiles": "CN(C)c1ccc(-c2cc(C(N)=O)c3[nH]c4cc(N5CCOCC5)ccc4c3n2)cn1", "note": "[Example 503, 2-(6-(dimethylamino)pyridin-3-yl)-7-morpholino-5H-pyrido[3,2-b]indole-4-carboxamide]", "IC50": 1},
      {"smiles": "NC(=O)c1cc(-c2ccc(Cl)c(Cl)c2)nc2c1[nH]c1cc(OCCN3CCOCC3)ccc12", "note": "[Example 245]", "IC50": 7},
      {"smiles": "NC(=O)c1cc(-c2ccc(F)c(Cl)c2)cc2c1[nH]c1cc(C(=O)N3CCOCC3)ccc12", "note": "[Example 545, 3-(3-Chloro-4-fluorophenyl)-7-(morpholine-4-carbonyl)-9H-carbazole-1-carboxamide]", "IC50": 885},
      {"smiles": "COCCOc1ccc(-c2cc(C(N)=O)c3[nH]c4cc(N5CCOCC5)ccc4c3n2)cc1Cl", "note": "[Example 357, 2-(3-chloro-4-(2-methoxyethoxy)phenyl)-7-morpholino-5H-pyrido[3,2-b]indole-4-carboxamide]", "IC50": 6},
      {"smiles": "CN1CCN(c2ccc3c(c2)[nH]c2c(C(N)=O)cc(-c4cccc(Cl)c4)nc23)CC1", "note": "[Example 309, 2-(3-chlorophenyl)-7-(4-methylpiperazin-1-yl)-5H-pyrido[3,2-b]indole-4-carboxamide]", "IC50": 1},
      {"smiles": "CN1CCN(C(=O)c2ccc3c(c2)[nH]c2c(C(N)=O)cc(-c4ccccc4)cc23)CC1", "note": "[Example 80, 7-((4-methyl-1-piperazinyl)carbonyl)-3-phenyl-9H-carbazole-1-carboxamide]", "IC50": 6},
      {"smiles": "COC(=O)c1cccc2[nH]c3c(C(N)=O)cc(-c4cccc(OC)c4)cc3c12", "note": "[Example 143, Methyl 8-carbamoyl-6-(3-methoxyphenyl)-9H-carbazole-4-carboxylate]", "IC50": 110},
      {"smiles": "NC(=O)c1cc(-c2ccc3scnc3c2)nc2c1[nH]c1cc(C(=O)N3CCOCC3)ccc12", "note": "[Example 456, 2-(benzo[d]thiazol-5-yl)-7-(morpholine-4-carbonyl)-5H-pyrido[3,2-b]indole-4-carboxamide]", "IC50": 1},
      {"smiles": "COc1ccc(-c2cc(C(N)=O)c3[nH]c4cc(N5CCOCC5)ccc4c3n2)cc1F", "note": "[Example 344, 2-(3-fluoro-4-methoxyphenyl)-7-morpholino-5H-pyrido[3,2-b] indole-4-carboxamide]", "IC50": 1},
      {"smiles": "COc1ccc(-c2cc(C(N)=O)c3[nH]c4ccc(C(=O)N5CCOCC5)cc4c3c2)cc1OC", "note": "[Example 166, 3-(3,4-dimethoxyphenyl)-6-(4-morpholinylcarbonyl)-9H-carbazole-1-carboxamide]", "IC50": 6},
      {"smiles": "COc1cccc(-c2cc(C(N)=O)c3[nH]c4cc(C(=O)N5C[C@@H]6C[C@H]5CO6)ccc4c3c2)c1", "note": "[Example 124, 3-(3-methoxyphenyl)-7-((1S,4S)-2-oxa-5-azabicyclo[2.2.1]hept-5-ylcarbonyl)-9H-carbazole-1-carboxamide]", "IC50": 6},
      {"smiles": "NC(=O)c1cc(-c2ccc(Cl)cc2)nc2c1[nH]c1cc(C(=O)N3CCOCC3)ccc12", "note": "[Example 227, 2-(4-chlorophenyl)-7-(4-morpholinylcarbonyl)-5H-pyrido[3,2-b]indole-4-carboxamide]", "IC50": 2},
      {"smiles": "NC(=O)c1cc(-c2ccc(CN3CCOCC3)s2)nc2c1[nH]c1cc(N3CCOCC3)ccc12", "note": "[Example 345, 7-morpholino-2-(5-(morpholinomethyl)thiophen-2-yl)-5H-pyrido[3,2-b] indole-4-carboxamide]", "IC50": 1},
      {"smiles": "NC(=O)c1cc(-c2ccc(CN3CCOCC3)c(Cl)c2)cc2c1[nH]c1cc(-c3cccnc3)ccc12", "note": "[Example 481, 3-(3-Chloro-4-(morpholinomethyl)phenyl)-7-(pyridin-3-yl)-9H-carbazole-1-carboxamide]", "IC50": 133},
      {"smiles": "NC(=O)c1cc(-c2ccc(CN3CCOCC3)c(Cl)c2)cc2c1[nH]c1cc(-c3ccc(N4CCOCC4)nc3)ccc12", "note": "[Example 482, 3-(3-Chloro-4-(morpholinomethyl)phenyl)-7-(6-morpholinopyridin-3-yl)-9H-carbazole-1-carboxamide]", "IC50": 917},
      {"smiles": "Cn1ccc2cc(-c3cc(C(N)=O)c4[nH]c5cc(C(=O)N6CCOCC6)ccc5c4n3)ccc21", "note": "[Example 448, 2-(1-methyl-1H-indol-5-yl)-7-(morpholine-4-carbonyl)-5H-pyrido[3,2-b]indole-4-carboxamide]", "IC50": 1},
      {"smiles": "NC(=O)c1cc(-c2ccc(CN3CCOCC3)s2)nc2c1[nH]c1cc(N3CCOCC3=O)ccc12", "note": "[Example 324, 2-(5-(Morpholinomethyl)thiophen-2-yl)-7-(3-oxomorpholino)-5H-pyrido[3,2-b]indole-4-carboxamide]", "IC50": 1},
      {"smiles": "COc1ccc(-c2cc(C(N)=O)c3[nH]c4nc(OC)ccc4c3n2)cc1", "note": "[Example 129, 7-Methoxy-2-(4-methoxyphenyl)-5H-pyrido[2′,3′:4,5]pyrrolo[2,3-b]pyridine-4-carboxamide]", "IC50": 110},
      {"smiles": "CC(C)(C)N1CCN(Cc2ccc3c(c2)[nH]c2c(C(N)=O)cc(-c4cccc(Cl)c4)nc23)CC1", "note": "[Example 256, 7((4-tert-Butyl-1-piperazinyl)methyl)-2-(3-chlorophenyl)-5H-pyrido[3,2-b]indole-4-carboxamide]", "IC50": 1},
      {"smiles": "COc1ccc(-c2cc(C(N)=O)c3[nH]c4cc(N5CCN(C)CC5)ccc4c3n2)cc1F", "note": "[Example 310, 2-(3-fluoro-4-methoxyphenyl)-7-(4-methylpiperazin-1-yl)-5H-pyrido[3,2-b]indole-4-carboxamide]", "IC50": 1},
      {"smiles": "Cn1nc(C(F)(F)F)cc1-c1cc(C(N)=O)c2[nH]c3cc(C(=O)N4CCOCC4)ccc3c2n1", "note": "[Example 464, 2-(1-methyl-3-(trifluoromethyl)-1H-pyrazol-5-yl)-7-(morpholine-4-carbonyl)-5H-pyrido[3,2-b]indole-4-carboxamide]", "IC50": 314},
      {"smiles": "COc1cccc(-c2cc(C(N)=O)c3[nH]c4ccncc4c3c2)c1", "note": "[Example 203, 8-(3-Methoxyphenyl)-5H-pyrido[4,3-b]indole-6-carboxamide, HCl]", "IC50": 34},
      {"smiles": "CN(C)C(=O)c1ccc(-c2cc(C(N)=O)c3[nH]c4cc(C(=O)N5CCOCC5)ccc4c3c2)cc1", "note": "[Example 558, 3-(4-(dimethylcarbamoyl)phenyl)-7-(4-morpholinylcarbonyl)-9H-carbazole-1-carboxamide]", "IC50": 286},
      {"smiles": "NC(=O)c1cc(-c2cccc(Cl)c2)cc2c1[nH]c1ccc(C(=O)N3CCOCC3)cc12", "note": "[Example 15, 3-(3-chlorophenyl)-6-(morpholine-4-carbonyl)-9H-carbazole-1-carboxamide]", "IC50": 1},
      {"smiles": "Cc1noc(C)c1-c1cc(C(N)=O)c2[nH]c3cc(C(=O)N4CCOCC4)ccc3c2n1", "note": "[Example 461, 2-(3,5-dimethylisoxazol-4-yl)-7-(morpholine-4-carbonyl)-5H-pyrido[3,2-b]indole-4-carboxamide]", "IC50": 146},
      {"smiles": "NC(=O)c1cc(-c2ccc(CO)nc2)nc2c1[nH]c1cc(N3CCOCC3)ccc12", "note": "[Example 500, 2-(6-(hydroxymethyl)pyridin-3-yl)-7-morpholino-5H-pyrido[3,2-b]indole-4-carboxamide]", "IC50": 6},
      {"smiles": "NC(=O)c1cc(-c2cc(CN3CCOCC3)co2)nc2c1[nH]c1cc(N3CCOCC3)ccc12", "note": "[Example 374, 7-morpholino-2-(4-(mor-pholinomethyl)furan-2-yl)-5H-pyrido[3,2-b]indole-4-carboxamide]", "IC50": 6},
      {"smiles": "NC(=O)c1cc(-c2cnc(N3CCOCC3)nc2)cc2c1[nH]c1cc(C(=O)N3CCOCC3)ccc12", "note": "[Example 579, 7-(4-morpholinylcarbonyl)-3-(2-(4-morpholinyl)-5-pyrimidinyl)-9H-carbazole-1-carboxamide]", "IC50": 108},
      {"smiles": "COc1cccc(-c2cc(C(N)=O)c3[nH]c4cc(NC(=O)OCCN)ccc4c3c2)c1", "note": "[Example 132, 2-aminoethyl (8-carbamoyl-6-(3-methoxyphenyl)-9H-carbazol-2-yl)carbamate]", "IC50": 7},
      {"smiles": "NC(=O)c1cc(-c2cccc(Cl)c2)nc2c1[nH]c1ccc(CN3CCOCC3)cc12", "note": "[Example 257, 2-(3-Chlorophenyl)-8-(morpholinomethyl)-5H-pyrido[3,2-b]indole-4-carboxamide]", "IC50": 1},
      {"smiles": "NC(=O)c1cc(N2CCOCC2)nc2c1[nH]c1cc(C(=O)N3CCOCC3)ccc12", "note": "[Example 403, 7-(morpholine-4-carbonyl)-2-morpholino-5H-pyrido[3,2-b]indole-4-carboxamide]", "IC50": 142},
      {"smiles": "Cn1ncc2ccc(-c3cc(C(N)=O)c4[nH]c5cc(C(=O)N6CCOCC6)ccc5c4n3)cc21", "note": "[Example 454, 2-(1-methyl-1H-indazol-6-yl)-7-(morpholine-4-carbonyl)-5H-pyrido[3,2-b]indole-4-carboxamide]", "IC50": 7},
      {"smiles": "Cc1cccc(-c2cc(C(N)=O)c3[nH]c4cc(N5CCN(Cc6ccccc6)CC5)ccc4c3c2)c1", "note": "[Example 479, 7-(4-Benzylpiperazin-1-yl)-3-m-tolyl-9H-carbazole-1-carboxamide]", "IC50": 123},
      {"smiles": "COc1cccc(-c2cc(C(N)=O)c3[nH]c4cc(C(=O)N(C)CCS(C)(=O)=O)ccc4c3c2)c1", "note": "[Example 96, 3-(3-methoxyphenyl)-N^7-methyl-N^7-(2-(methylsulfonyl)ethyl)-9H-carbazole-1,7-dicarboxamide]", "IC50": "< 1"}
    ]}
  ]
}
